# Source: patent publication US11702404B2, “GLP-1R modulating compounds” (priority 2019, dated 2023)
# Where two headings read alike, the source gives them in different places.
# Key:
# GLP-1R = GLP-1R (Homo sapiens, UniProt P43220); test: GLP-1R activation: cAMP increase in CHO cells stably expressing GLP-1R; type: cell-based; settings: read-out: EC50
# [1] = Microsomal stability, human liver microsomes (predicted hepatic clearance); settings: predicted from in vitro microsomal stability data
# [2] = cAMP increase, CHO cells stably expressing GLP-1R, 10 point dose response, 30 minutes incubation
# Sequence of GLP-1R (P43220 24-463): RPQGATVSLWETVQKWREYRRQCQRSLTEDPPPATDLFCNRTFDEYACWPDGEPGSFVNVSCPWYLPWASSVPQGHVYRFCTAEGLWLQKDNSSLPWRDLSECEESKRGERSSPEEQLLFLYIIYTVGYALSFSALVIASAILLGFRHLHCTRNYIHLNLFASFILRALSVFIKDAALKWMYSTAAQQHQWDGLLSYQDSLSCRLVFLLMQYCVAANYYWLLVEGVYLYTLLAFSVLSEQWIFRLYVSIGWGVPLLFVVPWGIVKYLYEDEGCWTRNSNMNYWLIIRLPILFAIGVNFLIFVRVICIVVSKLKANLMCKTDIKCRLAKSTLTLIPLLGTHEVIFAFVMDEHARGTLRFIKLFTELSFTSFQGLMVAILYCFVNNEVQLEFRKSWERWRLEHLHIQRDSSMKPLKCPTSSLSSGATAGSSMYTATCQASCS
smiles,measurement,setting,value
"N#Cc1ccc(COc2cccc(-c3cc(F)c(Cc4nc5ccc(C(=O)O)cc5n4Cc4cnns4)cc3F)n2)c(F)c1 [Example 569, 1-((1,2,3-thiadiazol-5-yl)methyl)-2-(4-(6-((4-cyano-2-fluorobenzyl)oxy)pyridin-2-yl)-2,5-difluorobenzyl)-1H-benzo[d]imidazole-6-carboxylic acid]",EC50,GLP-1R; [2],10.4 nM
same,Predicted Hepatic Clearance (Pred. Cl.),[1],17 mL/min/kg
N#Cc1ccc(COc2cccc(-c3cc(F)c(Cc4nc5ccc(C(=O)O)cc5n4CC45CC(CO4)C5)cc3F)n2)c(F)c1 [Example 574],EC50,GLP-1R; [2],0.63 nM
same,Predicted Hepatic Clearance (Pred. Cl.),[1],1.92 mL/min/kg
"N#Cc1ccc(COc2cccc(-c3cc(F)c(Cc4nc5ccc(C(=O)O)cc5n4CC45CC(C#N)(CO4)C5)cc3F)n2)c(F)c1 [Example 575, 2-(4-(6-((4-cyano-2-fluorobenzyl)oxy)pyridin-2-yl)-2,5-difluorobenzyl)-1-((4-cyano-2-oxabicyclo[2.1.1]hexan-1-yl)methyl)-1H-benzo[d]imidazole-6-carboxylic acid]",EC50,GLP-1R; [2],37.2 nM
same,Predicted Hepatic Clearance (Pred. Cl.),[1],8.67 mL/min/kg
"N#Cc1ccc(COc2cccc(-c3cc(F)c(Cc4nc5ccc(C(=O)O)cc5n4Cc4nncs4)cc3F)n2)c(F)c1 [Example 576, 1-((1,3,4-thiadiazol-2-yl)methyl)-2-(4-(6-((4-cyano-2-fluorobenzyl)oxy)pyridin-2-yl)-2,5-difluorobenzyl)-1H-benzo[d]imidazole-6-carboxylic acid]",EC50,GLP-1R; [2],0.86 nM
same,Predicted Hepatic Clearance (Pred. Cl.),[1],8 mL/min/kg
"N#Cc1ccc(COc2cccc(-c3cc(F)c(Cc4nc5ccc(C(=O)O)cc5n4CC4(n5ccnn5)CC4)cc3F)n2)c(F)c1 [Example 577, 1-((1-(1H-1,2,3-triazol-1-yl)cyclopropyl)methyl)-2-(4-(6-((4-cyano-2-fluorobenzyl)oxy)pyridin-2-yl)-2,5-difluorobenzyl)-1H-benzo[d]imidazole-6-carboxylic acid]",EC50,GLP-1R; [2],0.4 nM
same,Predicted Hepatic Clearance (Pred. Cl.),[1],7.5 mL/min/kg
"Cn1ncnc1Cn1c(Cc2cc(F)c(-c3cccc(OCc4ccc(C#N)cc4F)n3)cc2F)nc2ccc(C(=O)O)cc21 [Example 578, 2-(4-(6-((4-cyano-2-fluorobenzyl)oxy)pyridin-2-yl)-2,5-difluorobenzyl)-1-((1-methyl-1H-1,2,4-triazol-5-yl)methyl)-1H-benzo[d]imidazole-6-carboxylic acid]",EC50,GLP-1R; [2],13.8 nM
same,Predicted Hepatic Clearance (Pred. Cl.),[1],4.67 mL/min/kg
"N#Cc1ccc(COc2cccc(-c3cc(F)c(Cc4nc5ccc(C(=O)O)cc5n4Cc4ccns4)cc3F)n2)c(F)c1 [Example 579, 2-(4-(6-((4-cyano-2-fluorobenzyl)oxy)pyridin-2-yl)-2,5-difluorobenzyl)-1-(isothiazol-5-ylmethyl)-1H-benzo[d]imidazole-6-carboxylic acid]",EC50,GLP-1R; [2],0.35 nM
same,Predicted Hepatic Clearance (Pred. Cl.),[1],16 mL/min/kg
"N#Cc1ccc(COc2cccc(-c3cc(F)c(Cc4nc5ccc(C(=O)O)cc5n4Cc4ccsn4)cc3F)n2)c(F)c1 [Example 580, 2-(4-(6-((4-cyano-2-fluorobenzyl)oxy)pyridin-2-yl)-2,5-difluorobenzyl)-1-(isothiazol-3-ylmethyl)-1H-benzo[d]imidazole-6-carboxylic acid]",EC50,GLP-1R; [2],1.94 nM
same,Predicted Hepatic Clearance (Pred. Cl.),[1],5.83 mL/min/kg
"CC1(Cn2c(Cc3cc(F)c(-c4cccc(OCc5ccc(C#N)cc5F)n4)cc3F)nc3ccc(C(=O)O)cc32)COC1 [Example 581, 2-(4-(6-((4-cyano-2-fluorobenzyl)oxy)pyridin-2-yl)-2,5-difluorobenzyl)-1-((3-methyloxetan-3-yl)methyl)-1H-benzo[d]imidazole-6-carboxylic acid]",EC50,GLP-1R; [2],0.4 nM
same,Predicted Hepatic Clearance (Pred. Cl.),[1],6.33 mL/min/kg
"N#Cc1ccc(COc2cccc(-c3cc(F)c(Cc4nc5ccc(C(=O)O)nc5n4CCOC(F)F)cc3F)n2)c(F)c1 [Example 583, 2-(4-(6-((4-cyano-2-fluorobenzyl)oxy)pyridin-2-yl)-2,5-difluorobenzyl)-3-(2-(difluoromethoxy)ethyl)-3H-imidazo[4,5-b]pyridine-5-carboxylic acid]",EC50,GLP-1R; [2],2.39 nM
same,Predicted Hepatic Clearance (Pred. Cl.),[1],10.3 mL/min/kg
"N#Cc1ccc(COc2cccc(-c3ccc(Cc4nc5c(F)cc(C(=O)O)cc5n4Cc4ccon4)c(F)c3)n2)c(F)c1 [Example 585, 2-(4-(6-((4-cyano-2-fluorobenzyl)oxy)pyridin-2-yl)-2-fluorobenzyl)-4-fluoro-1-(isoxazol-3-ylmethyl)-1H-benzo[d]imidazole-6-carboxylic acid]",EC50,GLP-1R; [2],0.81 nM
same,Predicted Hepatic Clearance (Pred. Cl.),[1],2.33 mL/min/kg
"COC(C)(C)Cn1c(Cc2cc(F)c(-c3cccc(OCc4ccc(C#N)cc4F)n3)cc2F)nc2ccc(C(=O)O)cc21 [Example 586, 2-(4-(6-((4-cyano-2-fluorobenzyl)oxy)pyridin-2-yl)-2,5-difluorobenzyl)-1-(2-methoxy-2-methylpropyl)-1H-benzo[d]imidazole-6-carboxylic acid]",EC50,GLP-1R; [2],0.54 nM
same,Predicted Hepatic Clearance (Pred. Cl.),[1],7.67 mL/min/kg
"CO[C@@H](C)Cn1c(Cc2cc(F)c(-c3cccc(OCc4ccc(C#N)cc4F)n3)cc2F)nc2ccc(C(=O)O)cc21 [Example 587, (S)-2-(4-(6-((4-cyano-2-fluorobenzyl)oxy)pyridin-2-yl)-2,5-difluorobenzyl)-1-(2-methoxypropyl)-1H-benzo[d]imidazole-6-carboxylic acid]",EC50,GLP-1R; [2],2.15 nM
same,Predicted Hepatic Clearance (Pred. Cl.),[1],6.83 mL/min/kg
"CO[C@H](C)Cn1c(Cc2cc(F)c(-c3cccc(OCc4ccc(C#N)cc4F)n3)cc2F)nc2ccc(C(=O)O)cc21 [Example 588, (R)-2-(4-(6-((4-cyano-2-fluorobenzyl)oxy)pyridin-2-yl)-2,5-difluorobenzyl)-1-(2-methoxypropyl)-1H-benzo[d]imidazole-6-carboxylic acid]",EC50,GLP-1R; [2],1.33 nM
same,Predicted Hepatic Clearance (Pred. Cl.),[1],6.5 mL/min/kg
"COC(=O)N1CCC[C@@H]1Cn1c(Cc2cc(F)c(-c3cccc(OCc4ccc(C#N)cc4F)n3)cc2F)nc2ccc(C(=O)O)cc21 [Example 589, (R)-2-(4-(6-((4-cyano-2-fluorobenzyl)oxy)pyridin-2-yl)-2,5-difluorobenzyl)-1-((1-(methoxycarbonyl)pyrrolidin-2-yl)methyl)-1H-benzo[d]imidazole-6-carboxylic acid]",EC50,GLP-1R,5.46 nM
same,Predicted Hepatic Clearance (Pred. Cl.),[1],8.17 mL/min/kg
"CC(=O)N1CCC[C@@H]1Cn1c(Cc2cc(F)c(-c3cccc(OCc4ccc(C#N)cc4F)n3)cc2F)nc2ccc(C(=O)O)cc21 [Example 591, (R)-1-((1-acetylpyrrolidin-2-yl)methyl)-2-(4-(6-((4-cyano-2-fluorobenzyl)oxy)pyridin-2-yl)-2,5-difluorobenzyl)-1H-benzo[d]imidazole-6-carboxylic acid]",EC50,GLP-1R,0.17 nM
same,Predicted Hepatic Clearance (Pred. Cl.),[1],7 mL/min/kg
"COCCn1c(Cc2ccc(-c3cccc(OCc4ncc(Cl)s4)n3)cc2F)nc2ccc(C(=O)O)cc21 [Example 592, 2-(4-(6-((5-chlorothiazol-2-yl)methoxy)pyridin-2-yl)-2-fluorobenzyl)-1-(2-methoxyethyl)-1H-benzo[d]imidazole-6-carboxylic acid]",EC50,GLP-1R; [2],33.3 nM
same,Predicted Hepatic Clearance (Pred. Cl.),[1],12 mL/min/kg
"COCCn1c(Cc2ccc(-c3cccc(OCc4cnc(Cl)s4)n3)cc2F)nc2ccc(C(=O)O)cc21 [Example 593, 2-(4-(6-((2-chlorothiazol-5-yl)methoxy)pyridin-2-yl)-2-fluorobenzyl)-1-(2-methoxyethyl)-1H-benzo[d]imidazole-6-carboxylic acid]",EC50,GLP-1R; [2],145 nM
same,Predicted Hepatic Clearance (Pred. Cl.),[1],8.3 mL/min/kg
"N#Cc1ccc(COc2cccc(-c3cc(F)c(Cc4nc5ccc(C(=O)O)cc5n4Cc4ccon4)c(F)c3)n2)c(F)c1 [Example 594, 2-(4-(6-((4-cyano-2-fluorobenzyl)oxy)pyridin-2-yl)-2,6-difluorobenzyl)-1-(isoxazol-3-ylmethyl)-1H-benzo[d]imidazole-6-carboxylic acid]",EC50,GLP-1R; [2],0.77 nM
same,Predicted Hepatic Clearance (Pred. Cl.),[1],4.33 mL/min/kg
"COCCn1c(Cc2ccc(-c3cccc(OCc4cccnc4[N+](=O)[O-])n3)cc2F)nc2ccc(C(=O)O)cc21 [Example 596, 2-(2-fluoro-4-(6-((2-nitropyridin-3-yl)methoxy)pyridin-2-yl)benzyl)-1-(2-methoxyethyl)-1H-benzo[d]imidazole-6-carboxylic acid]",EC50,GLP-1R; [2],816 nM
same,Predicted Hepatic Clearance (Pred. Cl.),[1],19.5 mL/min/kg
"N#CCC1(Cn2c(Cc3ccc(-c4ccc(F)c(OCc5ccc(C#N)cc5F)n4)cc3F)nc3c(F)cc(C(N)=O)cc32)CC1 [Example 597, 2-(4-(6-((4-cyano-2-fluorobenzyl)oxy)-5-fluoropyridin-2-yl)-2-fluorobenzyl)-1-((1-(cyanomethyl)cyclopropyl)methyl)-4-fluoro-1H-benzo[d]imidazole-6-carboxamide]",EC50,GLP-1R; [2],13.8 nM
same,Predicted Hepatic Clearance (Pred. Cl.),[1],9.83 mL/min/kg
"COc1cc(C#N)ccc1COc1cccc(-c2cc(F)c(Cc3nc4ccc(C(N)=O)cc4n3CC3(CC#N)CC3)cc2F)n1 [Example 598, 2-(4-(6-((4-cyano-2-methoxybenzyl)oxy)pyridin-2-yl)-2,5-difluorobenzyl)-1-((1-(cyanomethyl)cyclopropyl)methyl)-1H-benzo[d]imidazole-6-carboxamide]",EC50,GLP-1R; [2],0.28 nM
same,Predicted Hepatic Clearance (Pred. Cl.),[1],19.2 mL/min/kg
"N#CCC1(Cn2c(Cc3cc(F)c(-c4ccnc(OCc5ccc(C#N)cc5F)n4)cc3F)nc3ccc(C(N)=O)nc32)CC1 [Example 599, 2-(4-(2-((4-cyano-2-fluorobenzyl)oxy)pyrimidin-4-yl)-2,5-difluorobenzyl)-3-((1-(cyanomethyl)cyclopropyl)methyl)-3H-imidazo[4,5-b]pyridine-5-carboxamide]",EC50,GLP-1R; [2],0.98 nM
same,Predicted Hepatic Clearance (Pred. Cl.),[1],12.3 mL/min/kg
"N#CCC1(Cn2c(Cc3ccc(-c4cccc(OCc5ccc(C#N)cc5F)n4)cc3F)nc3ccc(C(=O)O)nc32)CC1 [Example 600, 2-(4-(6-((4-cyano-2-fluorobenzyl)oxy)pyridin-2-yl)-2-fluorobenzyl)-3-((1-(cyanomethyl)cyclopropyl)methyl)-3H-imidazo[4,5-b]pyridine-5-carboxylic acid]",EC50,GLP-1R; [2],0.1 nM
same,Predicted Hepatic Clearance (Pred. Cl.),[1],6.7 mL/min/kg
